{
  "source": "patent US7556939B2",
  "about": "“Identification and characterization of racemases, definition of protein signatures, and a test for detecting D-amino acid and for screening molecules capable of inhibiting the activity of racemase, especially proline racemase” (Institut Pasteur, priority 2003, dated 2009)",
  "molecules": {"B1": {"name": "rTcPRACA: recombinant C-terminal His6-tagged T. cruzi proline racemase, 45 kDa secreted isoform, produced in E. coli (protein)", "chain": "GQEKLLFDQKYKIIKGEKKEKKKNQRANRREHQQKREIMRFKKSFTCIDMHTEGEAARIVTSGLPHIPGSNMAEKKAYLQENMDYLRRGIMLEPRGHDDMFGAFLFDPIEEGADLGMVFMDTGGYLNMCGHNSIAAVTAAVETGIVSVPAKATNVPVVLDTPAGLVRGTAHLQSGTESEVSNASIINVPSFLYQQDVVVVLPKPYGEVRVDIAFGGNFFAIVPAEQLGIDISVQNLSRLQEAGELLRTEINRSVKVQHPQLPHINTVDCVEIYGPPTNPEANYKNVVIFGNRQADRSPCGTGTSAKMATLYAKGQLRIGETFVYESILGSLFQGRVLGEERIPGVKVPVTKDAEEGMLVVTAEITGKAFIMGFNTMLFDPTDPFKNGFTLKQ", "modifications": "left off: small tags and cut ends", "notes": "recombinant C-terminal His6-tagged T. cruzi proline racemase, 45 kDa secreted isoform, produced in E. coli"}, "B2": {"name": "TcPRAC: Trypanosoma cruzi proline racemase, B cell mitogen, used for immunization of mice (protein)", "chain": "B1 chain", "modifications": "left off: small tags and cut ends", "notes": "Trypanosoma cruzi proline racemase, B cell mitogen, used for immunization of mice"}},
  "key": {"TcPRAC": {"target": "T1, TcPRAC (Trypanosoma cruzi, UniProt Q4DA80)", "T1 construct": "made in house", "settings": "cited from earlier work"}, "D-AAO": {"target": "T2, D-AAO (Sus scrofa, UniProt P00371)", "T2 construct": "purchased Sigma A-5222; host or cells: swine kidney", "T2 sequence (P00371 whole entry)": "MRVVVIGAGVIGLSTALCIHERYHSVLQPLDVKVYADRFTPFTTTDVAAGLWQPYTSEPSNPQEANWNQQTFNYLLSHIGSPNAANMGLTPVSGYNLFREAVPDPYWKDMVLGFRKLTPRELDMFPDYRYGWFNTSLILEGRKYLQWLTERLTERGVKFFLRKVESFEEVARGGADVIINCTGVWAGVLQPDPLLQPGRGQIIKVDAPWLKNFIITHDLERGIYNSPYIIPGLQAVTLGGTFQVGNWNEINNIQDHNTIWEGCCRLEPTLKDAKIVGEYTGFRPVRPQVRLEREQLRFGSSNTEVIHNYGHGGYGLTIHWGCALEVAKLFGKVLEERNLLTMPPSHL", "assay": "D-AAO/HRP microplate test for detection of D-amino acids", "assay_type": "biochemical, swine", "description": "• (3) Prepare a mixture containing the enzymes (D-AAO/HRP Mix), as follows: The amounts are given for one well, provided that the final volume will be 100 μl with the racemase products or the substrate:\nThis mixture is kept in the ice until use. • (4) The quantitation reaction starts when 13 μl of D-AAO/HRP mix is added to the reaction well. • (5) The microplate is covered with an adhesive coverlid and it is left in the dark at 37° C. between […] and 2 hours. The reaction can be monitored by eye whenever a color gradient matches the D-amino acid concentration of the standard dilutions. • (6) The microplate is read with a microplate spectrophotometer using a filter of at 490 nm.\nThe D-AAO/HRP test described here above can also be used for this purpose with slight modifications. For that purpose, the racemase reaction step should be skipped and the microplate test should start straightforward at the II-1-2.1-2 step described above with the following remarks:\n1) Standard: It should not be an equimolar mixture of D- and L-amino acid, but rather a serial dilution of D-Amino acids. The choice of amino acid is made according to the interest of the D-amino acid under investigation. The final volume in wells should be of 87 μl.\n2) Negative control: It is made with the L-enantiomer of the D-amino acid under investigation. The final volume should be 87 μl.\n3) Blank: It is made with 87 μl buffer*. (See paragraph II.1.1 Materials.)\n4) Samples: The samples to be tested should be adjusted to pH 8,3 with buffer* and their final volumes should be of 87 μl per well.\nObs: Standards, negative controls, samples to test and blanks should be made in duplicates. They are dispensed into the wells of the microplate.\n5) Then, the procedure follows steps 3) to 6), as above.\nDifferent L- and D-amino acids were tested, namely Tyrosine (Tyr), Valine (Val), Threonine (Thr), Glutamic acid (Glu), Lysine (Lys) and Tryptophan (Try)."}, "[1]": {"assay": "Stability of recombinant proline racemases under different storage conditions", "assay_type": "physicochemical", "description": "After purification on nickel-nitrilotriacetic acid agarose column, recombinant proteins were kept for 10 days in nickel column buffer (20 mM Tris/500 mM NaCl/500 mM imidazol, pH 8.0) at room temperature (RT) or at +4° C., or either diluted in 50% glycerol and maintained at −20° C. (Gly/−20° C.) or in optimum pH buffer (NaOAc, pH 6.0) at 4° C. Recombinant enzymes were precipitated in (NH4)2SO4 and kept in solution at 4° C. or pellet dried at −20° C. Racemase assays were performed for 30 min at 37° C."}, "[2]": {"assay": "Racemization assays, polarimetric", "assay_type": "biochemical", "settings": "for % racemization / Optical rotation: 5 μg protein, 40 mM L-proline, pH 6.0, 37° C.", "description": "The reaction was stopped by incubating for 10 min at 80° C. and freezing. Water (1 ml) was then added, and the optical rotation was measured in a polarimeter 241 MC (Perkin Elmer, Montigny le Bretonneux, France) at a wavelength of 365 nm, in a cell with a path length of 10 cm, at a precision of 0.001 degree. […] All reagents were purchased from Sigma.\nOptical rotation was measured and % of racemization was determined as described in Example 5.\nOptical rotation was measured at different times and % of racemization was determined as described in Example 5."}, "Trypanosoma cruzi": {"tested_on": "Trypanosoma cruzi", "assay": "Immunization of mice and infectious challenge with live Trypanosoma cruzi", "assay_type": "in vivo", "settings": "mice, sub-mitogenic doses"}, "[3]": {"settings": "D-enantiomers, 6.25 mM, duplicate wells"}, "[4]": {"settings": "L-enantiomers, 12.5 mM, duplicate wells"}},
  "note": "Several values for one entry are separate records, joined by “and”; a condition that tells them apart may be missing. Equal values may be shown once.",
  "data": [
    {"molecule": "NC(=O)CI", "note": "[iodoacetamide]", "values": [
      {"measurement": "TcPRAC enzymatic activity after alkylation", "setting": "TcPRAC", "value": "abolished"}
    ]},
    {"molecule": "CC(C)[C@H](N)C(=O)O", "note": "[D-Val, Valine]", "values": [
      {"measurement": "Optical density at 490 nm", "setting": "D-AAO; [3]", "value": "1.683 and 1.612"}
    ]},
    {"molecule": "C[C@@H](O)[C@H](N)C(=O)O", "note": "[D-Thr, Threonine]", "values": [
      {"measurement": "Optical density at 490 nm", "setting": "D-AAO; [3]", "value": "0.215 and 0.157"}
    ]},
    {"molecule": "C[C@@H](O)[C@H](N)C(=O)O", "note": "[L-Thr, Threonine]", "values": [
      {"measurement": "Optical density at 490 nm", "setting": "D-AAO; [4]", "value": "0.124 and 0.128"}
    ]},
    {"molecule": "N[C@@H](Cc1c[nH]c2ccccc12)C(=O)O", "note": "[D-Try, Tryptophan]", "values": [
      {"measurement": "Optical density at 490 nm", "setting": "D-AAO; [3]", "value": "0.615 and 0.662"}
    ]},
    {"molecule": "N[C@@H](Cc1c[nH]c2ccccc12)C(=O)O", "note": "[L-Try, Tryptophan]", "values": [
      {"measurement": "Optical density at 490 nm", "setting": "D-AAO; [4]", "value": "0.131 and 0.138"}
    ]},
    {"molecule": "O=C(O)[C@H]1CCCN1", "note": "[D-pro, D-proline]", "values": [
      {"measurement": "Optical density at 490 nm", "setting": "D-AAO; 0.05 mM", "value": 0.173},
      {"measurement": "Optical density at 490 nm", "setting": "D-AAO; 0.09 mM", "value": "0.213 and 0.215"},
      {"measurement": "Optical density at 490 nm", "setting": "D-AAO; 0.19 mM", "value": "0.308 and 0.32"},
      {"measurement": "Optical density at 490 nm", "setting": "D-AAO; 0.39 mM", "value": "0.496 and 0.504"},
      {"measurement": "Optical density at 490 nm", "setting": "D-AAO; 0.77 mM", "value": "0.809 and 0.824"},
      {"measurement": "Optical density at 490 nm", "setting": "D-AAO; 1.55 mM", "value": "1.234 and 1.221"},
      {"measurement": "Optical density at 490 nm", "setting": "D-AAO; 3.09 mM", "value": "1.716 and 1.879"},
      {"measurement": "Optical density at 490 nm", "setting": "D-AAO; 6.19 mM", "value": "1.983 and 1.949"},
      {"measurement": "Optical density at 490 nm", "setting": "D-AAO; 12.37 mM", "value": "1.814 and 1.976"},
      {"measurement": "Optical density at 490 nm", "setting": "D-AAO; 24.75 mM", "value": "1.757 and 1.885"},
      {"measurement": "Optical density at 490 nm", "setting": "D-AAO; 49.5 mM", "value": "1.961 and 2.004"}
    ]},
    {"molecule": "NCCCC[C@H](N)C(=O)O", "note": "[D-Lys, Lysine]", "values": [
      {"measurement": "Optical density at 490 nm", "setting": "D-AAO; [3]", "value": "0.243 and 0.157"}
    ]},
    {"molecule": "NCCCC[C@H](N)C(=O)O", "note": "[L-Lys, Lysine]", "values": [
      {"measurement": "Optical density at 490 nm", "setting": "D-AAO; [4]", "value": "0.125 and 0.131"}
    ]},
    {"molecule": "N[C@@H](CCC(=O)O)C(=O)O", "note": "[L-Glu, Glutamic acid]", "values": [
      {"measurement": "Optical density at 490 nm", "setting": "D-AAO; [4]", "value": "0.131 and 0.141"}
    ]},
    {"molecule": "O=C(O)CI", "note": "[iodoacetate]", "values": [
      {"measurement": "TcPRAC enzymatic activity after alkylation", "setting": "TcPRAC", "value": "abolished"}
    ]},
    {"molecule": "N[C@@H](Cc1ccc(O)cc1)C(=O)O", "note": "[L-Tyr, Tyrosine]", "values": [
      {"measurement": "Optical density at 490 nm", "setting": "D-AAO; [4]", "value": "0.193 and 0.141"}
    ]},
    {"molecule": "CC(C)[C@H](N)C(=O)O", "note": "[L-Val, Valine]", "values": [
      {"measurement": "Optical density at 490 nm", "setting": "D-AAO; [4]", "value": "0.135 and 0.129"}
    ]},
    {"molecule": "N[C@@H](CCC(=O)O)C(=O)O", "note": "[D-Glu, Glutamic acid]", "values": [
      {"measurement": "Optical density at 490 nm", "setting": "D-AAO; [3]", "value": "0.147 and 0.116"}
    ]},
    {"molecule": "N[C@@H](Cc1ccc(O)cc1)C(=O)O", "note": "[D-Tyr, Tyrosine]", "values": [
      {"measurement": "Optical density at 490 nm", "setting": "D-AAO; [3]", "value": "1.317 and 0.991"}
    ]},
    {"molecule": "B1", "values": [
      {"measurement": "% of preservation of proline racemase activity", "setting": "[1]; 10 days, 50% glycerol, −20° C. (Gly/−20° C.)", "value": 62.9, "unit": "%"},
      {"measurement": "% of preservation of proline racemase activity", "setting": "[1]; 10 days, NaOAc pH 6, 4° C.", "value": 31.0, "unit": "%"},
      {"measurement": "% of preservation of proline racemase activity", "setting": "[1]; 10 days, column buffer pH 8.0, +4° C.", "value": "65% and 66.5%"},
      {"measurement": "% of preservation of proline racemase activity", "setting": "[1]; 10 days, column buffer pH 8.0, RT", "value": 16.0, "unit": "%"},
      {"measurement": "loss of activity", "setting": "[1]; 10 days, room temperature, 0.5 M imidazol buffer pH 8.0", "value": 84, "unit": "%"},
      {"measurement": "% of preservation of proline racemase activity", "setting": "[1]; (NH4)2SO4 precipitated, in solution, 4° C.", "value": 53.9, "unit": "%"},
      {"measurement": "% of preservation of proline racemase activity", "setting": "[1]; (NH4)2SO4 precipitated, pellet dried, −20° C.", "value": 100.0, "unit": "%"},
      {"measurement": "% of preservation of proline racemase activity", "setting": "[1]; CTRL, freshly purified proteins", "value": 100.0, "unit": "%"},
      {"measurement": "temperature of maximal enzyme activity", "setting": "[2]", "value": 37, "unit": "°C"},
      {"measurement": "% racemization", "setting": "[2]; 0 min", "value": 0, "unit": "%"},
      {"measurement": "Optical rotation", "setting": "[2]; 0 min", "value": "−0.385"},
      {"measurement": "enzyme activity after heating", "setting": "[2]; 5 min at 80° C.", "value": "abolished"},
      {"measurement": "% racemization", "setting": "[2]; 10 min", "value": 22, "unit": "%"},
      {"measurement": "Optical rotation", "setting": "[2]; 10 min", "value": "−0.300"},
      {"measurement": "% racemization", "setting": "[2]; 30 min", "value": 58, "unit": "%"},
      {"measurement": "Optical rotation", "setting": "[2]; 30 min", "value": "−0.162"},
      {"measurement": "% racemization", "setting": "[2]; 60 min", "value": 77, "unit": "%"},
      {"measurement": "Optical rotation", "setting": "[2]; 60 min", "value": "−0.088"}
    ]},
    {"molecule": "B2", "values": [
      {"measurement": "specific antibody responses directed to TcPRAC", "setting": "Trypanosoma cruzi", "value": "high levels of specific antibody responses"},
      {"measurement": "immunoprotection against infectious challenge", "setting": "Trypanosoma cruzi; challenge with live Trypanosoma cruzi", "value": "high levels of immunoprotection"}
    ]}
  ]
}
